Results from patent publication US7064120B2, “Tricyclic pyridyl carboxamides and derivatives thereof tocolytic oxytocin receptor antagonists” (Wyeth, priority 2001, dated 2006).

Molecular target: T1, human vasopressin V1a receptor subtype (Homo sapiens, UniProt P37288)
T1 construct: host or cells: CHO cells, stably transfected (pZeoSV vector for the Thibonnier line)
Assay: Vasopressin binding in CHO cell membranes expressing human vasopressin V1a subtype receptors ([3H]Manning ligand radioligand binding)
Conditions: for IC50: value in parentheses
Procedure, shortened: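 Membranes from CHO cells expressing human V1a, 25–50 μg protein/well, incubated 60 min at room temperature with [3H]Manning ligand (20 μL of 8 nM stock) in 50 mM Tris-HCl pH 7.4 with BSA, MgCl2 and protease inhibitors. Filtration then scintillation counting; reported as % inhibition or IC50 (nM).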

T1 sequence (P37288 whole entry): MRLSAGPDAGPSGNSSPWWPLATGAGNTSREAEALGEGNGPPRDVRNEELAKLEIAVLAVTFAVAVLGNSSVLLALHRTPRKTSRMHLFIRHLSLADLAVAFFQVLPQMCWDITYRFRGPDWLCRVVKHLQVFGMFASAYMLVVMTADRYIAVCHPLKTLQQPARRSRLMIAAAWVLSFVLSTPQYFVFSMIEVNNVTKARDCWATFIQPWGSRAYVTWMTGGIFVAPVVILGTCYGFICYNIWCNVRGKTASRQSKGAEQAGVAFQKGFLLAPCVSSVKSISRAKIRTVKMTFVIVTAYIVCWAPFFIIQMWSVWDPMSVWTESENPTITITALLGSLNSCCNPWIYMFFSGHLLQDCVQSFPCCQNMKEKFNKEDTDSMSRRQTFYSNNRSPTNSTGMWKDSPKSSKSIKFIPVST

IC50 [nM]	inhibition at 0.1 µM (100 nM) [%]	SMILES	also measured
	54	COc1cccc(-c2ccc(C(=O)N3Cc4ccc(C(=O)N(C)CCc5ccccn5)n4Cc4ccccc43)cc2OC)c1 [Example 72, 10-[(2,3′-Dimethoxy-[1,1′-biphenyl]-4-yl)carbonyl]-N-methyl-N-[2-(2-pyridinyl)ethyl]-10,11-dihydro-5H-pyrrolo[2,1-c][1,4]benzodiazepine-3-carboxamide]	
	6	CN(CCc1ccccn1)C(=O)c1ccc2n1Cc1ccccc1N(C(=O)c1ccc(-c3cccc4ccccc34)cc1Cl)C2 [Example 73, 10-[2-Chloro-4-(naphthalen-1-yl)benzoyl]-N-methyl-N-[2-(2-pyridinyl)ethyl]-10,11-dihydro-5H-pyrrolo[2,1-c][1,4]benzodiazepine-3-carboxamide]	
	63	Cc1cc(C(=O)N2Cc3ccc(C(=O)N(C)CCc4ccccn4)n3Cc3ccccc32)ccc1-c1ccccc1C(F)(F)F [Example 74, N-Methyl-10-{[2-methyl-2′-trifluoromethyl-[1,1′-biphenyl]-4-yl]carbonyl}-N-[2-(2-pyridinyl)ethyl]-10,11-dihydro-5H-pyrrolo[2,1-c][1,4]benzodiazepine-3-carboxamide]	
	-1	COc1ccccc1-c1ccc(C(=O)N2Cc3ccc(C(=O)N4CCN(c5ccccn5)CC4)n3Cc3ccccc32)cc1C [Example 75, {10-[(2′-Methoxy-2-methyl-[1,1′-biphenyl]-4-yl)carbonyl]-10,11-dihydro-5H-pyrrolo[2,1-c][1,4]benzodiazepin-3-yl}[4-(2-pyridinyl)-1-piperazinyl]methanone]	
	11	Cc1ccccc1-c1ccc(C(=O)N2Cc3ccc(C(=O)N4CCN(c5ccccn5)CC4)n3Cc3ccccc32)cc1C [Example 76, {10-[(2,2′-Dimethyl-[1,1′-biphenyl]-4-yl)carbonyl]-10,11-dihydro-5H-pyrrolo[2,1-c][1,4]benzodiazepin-3-yl}[4-(2-pyridinyl)-1-piperazinyl]methanone]	
	5	COc1cccc(-c2ccc(C(=O)N3Cc4ccc(C(=O)N5CCN(c6ccccn6)CC5)n4Cc4ccccc43)cc2C)c1 [Example 77, {10-[(3′-Methoxy-2-methyl-[1,1′-biphenyl]-4-yl)carbonyl]-10,11-dihydro-5H-pyrrolo[2,1-c][1,4]benzodiazepin-3-yl}[4-(2-pyridinyl)-1-piperazinyl]methanone]	
	6	COc1ccccc1-c1ccc(C(=O)N2Cc3ccc(C(=O)N4CCN(c5ccccn5)CC4)n3Cc3ccccc32)cc1 [Example 78, {10-[(2′-Methoxy-[1,1′-biphenyl]-4-yl)carbonyl]-10,11-dihydro-5H-pyrrolo[2,1-c][1,4]benzodiazepin-3-yl}[4-(2-pyridinyl)-1-piperazinyl]methanone]	
	18	Cc1ccccc1-c1ccc(C(=O)N2Cc3ccc(C(=O)N4CCN(c5ccccn5)CC4)n3Cc3ccccc32)cc1 [Example 79, {10-[(2′-Methyl-[1,1′-biphenyl]-4-yl)carbonyl]-10,11-dihydro-5H-pyrrolo[2,1-c][1,4]benzodiazepin-3-yl}[4-(2-pyridinyl)-1-piperazinyl]methanone]	

Second part, the molecule before the results:

SMILES	IC50 [nM]	inhibition at 0.1 µM (100 nM) [%]	also measured
Cc1cc(C(=O)N2Cc3ccc(C(=O)N4CCN(c5ccncc5)CC4)n3Cc3ccccc32)ccc1-c1ccccc1C(F)(F)F [Example 1]			V1a % inhibition @ 100 nM (100 nM): 9%
Cc1cc(C(=O)N2Cc3ccc(C(=O)N4CCN(Cc5ccc[n+]([O-])c5)CC4)n3Cc3ccccc32)ccc1-c1ccccc1C(F)(F)F [Example 2, 10-{[2-Methyl-2′-trifluoromethyl-[1,1′-biphenyl]-4-yl]carbonyl}-3-({4-[(1-oxidopyridin-3-yl)methyl]piperazin-1-yl}carbonyl)-10,11-dihydro-5H-pyrrolo[2,1-c][1,4]benzodiazepine]	3180		
Cc1cc(C(=O)N2Cc3ccc(C(=O)N4CCN(Cc5ccc[n+]([O-])c5C)CC4)n3Cc3ccccc32)ccc1-c1ccccc1C(F)(F)F [Example 3, 3-({4-[(2-Methyl-1-oxidopyridin-3-yl)methyl]piperazin-1-yl}carbonyl)-10-{[2-methyl-2′-trifluoromethyl-[1,1′-biphenyl]-4-yl]carbonyl}-10,11-dihydro-5H-pyrrolo[2,1-c][1,4]benzodiazepine]	> 3000		
Cc1cc(C(=O)N2Cc3ccc(C(=O)N(C)Cc4ccc[n+]([O-])c4)n3Cc3ccccc32)ccc1-c1ccccc1C(F)(F)F [Example 4, N-Methyl-10-{[2-methyl-2′-trifluoromethyl-[1,1′-biphenyl]-4-yl]carbonyl}-N-[(1-oxidopyridin-3-yl)methyl]-10,11-dihydro-5H-pyrrolo[2,1-c][1,4]benzodiazepine-3-carboxamide]	792		
COc1cc(-c2ccccc2C(F)(F)F)c(Cl)cc1C(=O)N1Cc2ccc(C(=O)N(C)Cc3cccnc3)n2Cc2ccccc21 [Example 5, 10-{[6-Chloro-3-methoxy-2′-trifluoromethyl-[1,1′-biphenyl]-4-yl]carbonyl}-N-methyl-N-(pyridin-3-ylmethyl)-10,11-dihydro-5H-pyrrolo[2,1-c][1,4]benzodiazepine-3-carboxamide]	> 3000		
COc1cc(-c2ccccc2Cl)c(Cl)cc1C(=O)N1Cc2ccc(C(=O)N(C)Cc3cccnc3)n2Cc2ccccc21 [Example 6, 10-[(2′,6-Dichloro-3-methoxy-[1,1′-biphenyl]-4-yl)carbonyl]-N-methyl-N-(pyridin-3-ylmethyl)-10,11-dihydro-5H-pyrrolo[2,1-c][1,4]benzodiazepine-3-carboxamide]	928		
COc1cc(C(=O)N2Cc3ccc(C(=O)N(C)Cc4cccnc4)n3Cc3ccccc32)ccc1-c1ccccc1C(F)(F)F [Example 7, 10-{[2-Methoxy-2′-trifluoromethyl-[1,1′-biphenyl]-4-yl]carbonyl}-N-methyl-N-(pyridin-3-ylmethyl)-10,11-dihydro-5H-pyrrolo[2,1-c][1,4]benzodiazepine-3-carboxamide]	803		
COc1cc(C(=O)N2Cc3ccc(C(=O)N(C)Cc4ccc[n+]([O-])c4)n3Cc3ccccc32)ccc1-c1ccccc1C(F)(F)F [Example 8, 10-{[2-Methoxy-2′-trifluoromethyl-[1,1′-biphenyl]-4-yl]carbonyl}-N-methyl-N-(1-oxo-pyridin-3-ylmethyl)-10,11-dihydro-5H-pyrrolo[2,1-c][1,4]benzodiazepine-3-carboxamide]	801		
COc1cccc(-c2ccc(C(=O)N3Cc4ccc(C(=O)N(C)CCc5ccccn5)n4Cc4ccccc43)cc2C)c1 [Example 62, 10-[(3′-Methoxy-2-methyl-[1,1′-biphenyl]-4-yl)carbonyl]-N-methyl-N-[2-(2-pyridinyl)ethyl]-10,11-dihydro-5H-pyrrolo[2,1-c][1,4]benzodiazepine-3-carboxamide]	177		
COc1cc(-c2ccccc2C)c(Cl)cc1C(=O)N1Cc2ccc(C(=O)N(C)CCc3ccccn3)n2Cc2ccccc21 [Example 63, 10-[(6-Chloro-3-methoxy-2′-methyl-[1,1′-biphenyl]-4-yl)carbonyl]-N-methyl-N-[2-(2-pyridinyl)ethyl]-10,11-dihydro-5H-pyrrolo[2,1-c][1,4]benzodiazepine-3-carboxamide]	273		
COc1ccccc1-c1ccc(C(=O)N2Cc3ccc(C(=O)N(C)CCc4ccccn4)n3Cc3ccccc32)cc1C [Example 65, 10-[(2′-Methoxy-2-methyl-[1,1′-biphenyl]-4-yl)carbonyl]-N-methyl-N-[2-(2-pyridinyl)ethyl]-10,11-dihydro-5H-pyrrolo[2,1-c][1,4]benzodiazepine-3-carboxamide]		25	
Cc1ccccc1-c1ccc(C(=O)N2Cc3ccc(C(=O)N(C)CCc4ccccn4)n3Cc3ccccc32)cc1C [Example 66, 10-[(2,2′-Dimethyl-[1,1′-biphenyl]-4-yl)carbonyl]-N-methyl-N-[2-(2-pyridinyl)ethyl]-10,11-dihydro-5H-pyrrolo[2,1-c][1,4]benzodiazepine-3-carboxamide]		58	
COc1ccccc1-c1ccc(C(=O)N2Cc3ccc(C(=O)N(C)CCc4ccccn4)n3Cc3ccccc32)cc1 [Example 67, 10-[(2′-Methoxy-[1,1′-biphenyl]-4-yl)carbonyl]-N-methyl-N-[2-(2-pyridinyl)ethyl]-10,11-dihydro-5H-pyrrolo[2,1-c][1,4]benzodiazepine-3-carboxamide]		40	
Cc1ccccc1-c1ccc(C(=O)N2Cc3ccc(C(=O)N(C)CCc4ccccn4)n3Cc3ccccc32)cc1 [Example 68, N-Methyl-10-[(2′-methyl-[1,1′-biphenyl]-4-yl)carbonyl]-N-[2-(2-pyridinyl)ethyl]-10,11-dihydro-5H-pyrrolo[2,1-c][1,4]benzodiazepine-3-carboxamide]		81	
COc1cc(C(=O)N2Cc3ccc(C(=O)N(C)CCc4ccccn4)n3Cc3ccccc32)ccc1-c1ccccc1C [Example 69, 10-[(2-Methoxy-2′-methyl-[1,1′-biphenyl]-4-yl)carbonyl]-N-methyl-N-[2-(2-pyridinyl)ethyl]-10,11-dihydro-5H-pyrrolo[2,1-c][1,4]benzodiazepine-3-carboxamide]		72	
COc1cccc(-c2cc(OC)c(C(=O)N3Cc4ccc(C(=O)N(C)CCc5ccccn5)n4Cc4ccccc43)cc2Cl)c1 [Example 70, 10-[(6-Chloro-3,3′-dimethoxy-[1,1′-biphenyl]-4-yl)carbonyl]-N-methyl-N-[2-(2-pyridinyl)ethyl]-10,11-dihydro-5H-pyrrolo[2,1-c][1,4]benzodiazepine-3-carboxamide]		8	
COc1cc(C(=O)N2Cc3ccc(C(=O)N(C)CCc4ccccn4)n3Cc3ccccc32)ccc1-c1cccc2ccccc12 [Example 71, 10-[3-Methoxy-4-(naphthalen-1-yl)benzoyl]-N-methyl-N-[2-(2-pyridinyl)ethyl]-10,11-dihydro-5H-pyrrolo[2,1-c][1,4]benzodiazepine-3-carboxamide]		20	
